According to patent US20190195897A1, “GLYCOSYLATED METABOLITES” (UNIVERSITEIT LEIDEN, priority 2015, published 2019):

Experiments:
[1] = target: T1, recombinant GBA1 (rGBA1, Cerezyme) (Homo sapiens, UniProt P04062, R534H); assay: Degradation of GlcChol by rGBA1; type: biochemical
T1 construct: purchased Genzyme (Genzyme Nederland, Naarden, The Netherlands)
T1 sequence (P04062 40-536 R534H): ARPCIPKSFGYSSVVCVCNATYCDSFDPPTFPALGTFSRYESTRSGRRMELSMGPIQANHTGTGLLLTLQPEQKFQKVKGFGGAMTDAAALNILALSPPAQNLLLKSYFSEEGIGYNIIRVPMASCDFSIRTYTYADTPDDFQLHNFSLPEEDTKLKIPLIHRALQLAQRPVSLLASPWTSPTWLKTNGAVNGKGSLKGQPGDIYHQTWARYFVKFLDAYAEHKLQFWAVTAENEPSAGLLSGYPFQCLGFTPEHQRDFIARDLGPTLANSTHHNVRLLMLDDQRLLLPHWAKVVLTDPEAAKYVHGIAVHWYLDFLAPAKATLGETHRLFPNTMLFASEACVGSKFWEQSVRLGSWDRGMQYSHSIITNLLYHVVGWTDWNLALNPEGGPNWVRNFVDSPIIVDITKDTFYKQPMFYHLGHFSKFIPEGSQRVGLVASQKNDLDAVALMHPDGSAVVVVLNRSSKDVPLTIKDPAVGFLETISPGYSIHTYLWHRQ
Description: FIG. 1D: Linearity of GlcChol quantification and its complete digestion with rGBAl. (5 IU) for 60 min at 37 C.
The physiological significance of glucosylation of cholesterol is hypothetically great since it renders the molecule far more water soluble. To establish whether GlcChol physiologically occurs in mammals, firstly a LC-MS/MS procedure was developed for its quantitative detection. For this purpose, a ^13C-isotope labeled cholesterolglucoside was synthesized to be used as internal standard in sensitive quantitative detection of GlcChol by LC-MS/MS. The use of the isotope labeled compound as internal standard avoids the need for corrections for extraction efficiency, chromatographic behavior and ionization efficiency, during quantification GlcChol. […] The limit of detection (LOD) was 0.5 pmol/mL plasma, with a signal to noise ratio of 3 and a limit of quantitation (LOQ) of 0.9 pmol/mL plasma with a signal to noise ratio of 10.
Both GBA and GBA2, but not GBA3, are able to degrade by hydrolysis as well as synthesize GlcChol at conditions optimal for degradation of 4MU-8-glucoside (FIG. 1D; supplemental Table 1). […] This ability of the several GBA's to hydrolyze as well as synthesize GlcChol was studied in vitro using 25-NBD-cholesterol as acceptor and detection of 25-NBD-glucoside formation by TLC and fluorescence scanning. […]

GBA2 = target: T2, GBA2 (Mus musculus, UniProt Q69ZF3); assay: Degradation of GlcChol by GBA2; type: biochemical, murine; settings: GBA2, input 18 nmol 4MU-β-Glc hydrolysis per ml/h
T2 construct: Myc-His (C); expressed in transfected cells; host or cells: COS-7 cells, used as homogenate/lysate
T2 sequence (Q69ZF3 1-918): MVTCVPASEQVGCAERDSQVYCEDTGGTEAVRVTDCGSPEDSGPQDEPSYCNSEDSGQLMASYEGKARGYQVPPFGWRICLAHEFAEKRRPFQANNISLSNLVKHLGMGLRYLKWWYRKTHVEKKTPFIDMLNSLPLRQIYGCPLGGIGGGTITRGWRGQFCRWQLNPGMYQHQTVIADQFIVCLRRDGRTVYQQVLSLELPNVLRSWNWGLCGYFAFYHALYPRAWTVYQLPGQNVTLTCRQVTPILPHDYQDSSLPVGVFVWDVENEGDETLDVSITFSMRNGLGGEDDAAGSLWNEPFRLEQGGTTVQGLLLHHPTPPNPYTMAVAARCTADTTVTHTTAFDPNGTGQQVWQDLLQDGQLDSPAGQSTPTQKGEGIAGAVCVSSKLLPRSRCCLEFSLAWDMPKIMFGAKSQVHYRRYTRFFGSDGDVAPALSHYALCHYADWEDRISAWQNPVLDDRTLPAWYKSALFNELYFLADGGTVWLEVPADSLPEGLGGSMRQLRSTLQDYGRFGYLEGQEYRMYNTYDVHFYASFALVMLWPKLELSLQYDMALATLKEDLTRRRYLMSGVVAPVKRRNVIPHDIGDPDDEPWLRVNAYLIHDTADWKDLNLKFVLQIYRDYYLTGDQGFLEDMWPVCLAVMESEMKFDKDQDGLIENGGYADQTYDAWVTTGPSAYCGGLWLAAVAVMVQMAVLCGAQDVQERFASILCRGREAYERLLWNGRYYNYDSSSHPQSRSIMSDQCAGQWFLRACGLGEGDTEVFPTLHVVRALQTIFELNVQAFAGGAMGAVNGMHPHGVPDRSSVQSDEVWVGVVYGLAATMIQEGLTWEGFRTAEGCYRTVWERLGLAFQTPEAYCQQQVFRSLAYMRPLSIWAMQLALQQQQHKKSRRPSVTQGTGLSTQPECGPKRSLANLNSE
Excerpt: Both GBA and GBA2, but not GBA3, are able to degrade by hydrolysis as well as synthesize GlcChol at conditions optimal for degradation of 4MU-8-glucoside (FIG. 1D; supplemental Table 1). […] This ability of the several GBA's to hydrolyze as well as synthesize GlcChol was studied in vitro using 25-NBD-cholesterol as acceptor and detection of 25-NBD-glucoside formation by TLC and fluorescence scanning. As source of enzyme rGBA1 was used and GBA2 and GBA3 were individually overexpressed in COST-cells. Overexpression of enzymes was checked by measuring enzymatic activity with appropriate assays and visualization of enzymes with the broad-specificity β-glucopyranosyl cyclophellitolaziridine-type ABP (38). rGBA1 and lysates of GBA2 and GBA3 overexpressing cells were incubated with natural glucosylceramide (C16:0-GloCer or C18:1-GlcCer) as donors and 25-NBD-cholesterol as acceptor. […]
Homogenates of COS-7 cells overexpressing GBA2 and/or GCS, were analyzed for enzymatic activity of GBA2 using artificial 4MU-Glc substrate as earlier described (38). […] The reaction was terminated by addition of 1.25 mL stop-buffer (0.3 M Glycine/NaOH, pH 10.6) and the released 4MU was measured with a LS55 Fluorescence Spectrometer (Perkin-Elmer, Waltham, Mass., USA).

substrate for recombinant GBA1 ([1]; even at sub-optimal conditions (absence of Triton-X-100 and sodium taurocholate)): excellent substrate
Percentage digestion GlcChol after 1 h (10 nmole) ([1]; rGBA1, input 15 nmol 4MU-β-Glc hydrolysis per ml/h): 95%
Percentage digestion GlcChol after 1 h (10 nmole) (GBA2): 83%
SMILES: CC(C)CCC[C@@H](C)[C@H]1CC[C@H]2[C@@H]3CC=C4C[C@@H](O[C@@H]5O[C@H](CO)[C@@H](O)[C@H](O)[C@H]5O)CC[C@]4(C)[C@H]3CC[C@]12C [GlcChol, 1-O-cholesteryl-β-D-glucopyranoside]
